Assay results from patent US7772252B2, “Heterocyclic substituted carbonyl derivatives and their use as dopamine D3 receptor ligands” (Aventis Pharmaceuticals Inc., priority 2001, dated 2010).

biological target: T1, cloned human dopamine D3 receptors (Homo sapiens, UniProt P35462); experiment: [N-Methyl-3H]Spiroperidol binding to cloned human dopamine D3 receptors; details: read-out: D3 Ki
T1 construct: expressed in transfected cells; membrane homogenate
Outline: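 Radioligand displacement with [N-methyl-3H]spiroperidol was run on membranes from a high-expressing CHO clone carrying human D3. Membranes were prepared in 10% DMSO and stored at −80° C.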

T1 sequence (P35462 whole entry): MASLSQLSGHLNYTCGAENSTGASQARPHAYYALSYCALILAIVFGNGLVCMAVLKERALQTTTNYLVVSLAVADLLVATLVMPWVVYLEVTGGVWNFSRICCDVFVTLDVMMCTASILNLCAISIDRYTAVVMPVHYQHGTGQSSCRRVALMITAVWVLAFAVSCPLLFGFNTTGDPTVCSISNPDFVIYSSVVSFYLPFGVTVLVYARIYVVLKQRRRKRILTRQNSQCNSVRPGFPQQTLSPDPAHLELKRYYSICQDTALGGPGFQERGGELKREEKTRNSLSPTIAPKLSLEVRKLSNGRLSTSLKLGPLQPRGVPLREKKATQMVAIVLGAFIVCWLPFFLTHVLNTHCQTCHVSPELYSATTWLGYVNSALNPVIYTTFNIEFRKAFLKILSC

| SMILES | Ki [nM] |
| --- | --- |
| O=C(NC1CCN(Cc2cccc(Cl)c2)CC1)[C@@H]1C[C@H]1CN1CCN(c2csc3cc(C(F)(F)F)ccc23)CC1 [compound 832740] | 30.2 |
| COc1ccc2c(c1)c(N1CCN(C[C@@H]3C[C@H]3C(=O)N(C)C3CCN(C)CC3)CC1)nn2C [compound 832745] | 15 |
| CC(C)N1CCN(C(=O)[C@@H]2C[C@H]2CN2CCN(c3csc4cc(C(F)(F)F)ccc34)CC2)CC1 [compound 832833] | 18.2 |
| C=CCN1CCN(C(=O)[C@@H]2C[C@H]2CN2CCN(c3csc4cc(C(F)(F)F)ccc34)CC2)CC1 [compound 832834] | 12.2 |
| COCCN1CCN(C(=O)[C@@H]2C[C@H]2CN2CCN(c3csc4cc(C(F)(F)F)ccc34)CC2)CC1 [compound 832835] | 18.1 |
| O=C(NCC1CCNCC1)[C@@H]1C[C@H]1CN1CCN(c2csc3cc(C(F)(F)F)ccc23)CC1 [compound 832859] | 14.3 |
| C[C@H]1CC[C@H](NC(=O)[C@@H]2C[C@H]2CN2CCN(c3nn(-c4ccc(C(F)(F)F)cc4)c4ccsc34)CC2)CC1 [compound 832881] | 37.9 |
| O=C(NCc1cccc(OC(F)(F)F)c1)[C@@H]1C[C@H]1CN1CCN(c2csc3cc(C(F)(F)F)ccc23)CC1 [compound 833062] | 55.4 |
| CC(=O)N1CCC(CNC(=O)[C@@H]2C[C@H]2CN2CCN(c3csc4cc(C(F)(F)F)ccc34)CC2)CC1 [compound 833065] | 692 |
| Cn1nc(C2CCN(C[C@@H]3C[C@H]3C(=O)N[C@H]3CC[C@H](O)CC3)CC2)c2cccc(C(F)(F)F)c21 [compound 833080] | 22.9 |
| Cn1nc(C2CCN(C[C@@H]3C[C@H]3C(=O)N3CCC(N4CCCCC4)CC3)CC2)c2cccc(C(F)(F)F)c21 [compound 833091] | 118 |
| Cn1nc(C2CCN(C[C@@H]3C[C@H]3C(=O)NCCCc3cccnc3)CC2)c2cccc(C(F)(F)F)c21 [compound 833092] | 33.5 |
| COc1ccc2c(c1)c(N1CCN(C[C@@H]3C[C@H]3C(=O)NCCCN3CCCCC3)CC1)nn2C [compound 833120] | 138 |
| COc1ccc2c(c1)c(N1CCN(C[C@@H]3C[C@H]3C(=O)N3CCN(C(C)C)CC3)CC1)nn2C [compound 833122] | 52.9 |
| COc1ccc2c(c1)c(N1CCN(C[C@@H]3C[C@H]3C(=O)N3CCC(n4ccnc4)CC3)CC1)nn2C [compound 833123] | 26.3 |
| COc1ccc2c(c1)c(N1CCN(C[C@@H]3C[C@H]3C(=O)N3CCN(Cc4ccc(Cl)cc4)CC3)CC1)nn2C [compound 833124] | 26.8 |

| SMILES | Ki [nM] |
| --- | --- |
| COc1ccc2c(c1)c(N1CCN(C[C@@H]3C[C@H]3C(=O)N3CCN(Cc4ccc(C)cc4)CC3)CC1)nn2C [compound 833125] | 70.8 |
| CC(C)N1CCN(C(=O)[C@@H]2C[C@H]2CN2CCC(c3noc4ccsc34)CC2)CC1 [compound 833127] | 79.6 |
| O=C([C@@H]1C[C@H]1CN1CCC(c2noc3ccsc23)CC1)N1CCN(Cc2ccc(Cl)cc2)CC1 [compound 833128] | 26.7 |
| CC(C)(C)c1ccc(CCNC(=O)[C@@H]2C[C@H]2CN2CCC(c3noc4ccsc34)CC2)cc1 [compound 833129] | 95.3 |
| O=C([C@@H]1C[C@H]1CN1CCC(c2noc3ccsc23)CC1)N1CCN(CCCc2ccccc2)CC1 [compound 833131] | 16.8 |
| O=C([C@@H]1C[C@H]1CN1CCC(c2noc3ccsc23)CC1)N1CCN(Cc2ccc(F)cc2)CC1 [compound 833132] | 108 |
| COc1ccc(CN2CCN(C(=O)[C@@H]3C[C@H]3CN3CCC(c4noc5ccsc45)CC3)CC2)cc1 [compound 833133] | 114 |
| COc1ccc2c(c1)c(N1CCN(C[C@@H]3C[C@H]3C(=O)NCC3CCNCC3)CC1)nn2C [compound 833136] | 14.3 |
| CC(C)(C)C(=O)O[C@H]1CC[C@H](NC(=O)[C@@H]2C[C@H]2CN2CCC(c3csc4c(C(F)(F)F)cccc34)CC2)CC1 [compound 833151] | 11.2 |
| O=C(NCCCN1CCCCC1)[C@@H]1C[C@H]1CN1CCC(c2nn(-c3ccc(F)cc3)c3cc(F)ccc23)CC1 [compound 833157] | 43.9 |
| O=C([C@@H]1C[C@H]1CN1CCC(c2noc3ccsc23)CC1)N1CCN(CCc2cccs2)CC1 [compound 833163] | 17.5 |
| O=C([C@@H]1C[C@H]1CN1CCC(c2noc3ccsc23)CC1)N1CCC(n2ccnc2)CC1 [compound 833164] | 52.5 |
| COc1ccc2c(c1)c(N1CCN(C[C@@H]3C[C@H]3C(=O)NCC3CCN(C(C)=O)CC3)CC1)nn2C [compound 833197] | 45.4 |
| CC(C)(C)OC(=O)N1CCN(CCNC(=O)[C@@H]2C[C@H]2CN2CCN(c3csc4cc(C(F)(F)F)ccc34)CC2)CC1 [compound 833277] | 16.7 |
| O=C(NCCN1CCNCC1)[C@@H]1C[C@H]1CN1CCN(c2csc3cc(C(F)(F)F)ccc23)CC1 [compound 833322] | 12.8 |

Now those with a lower Ki, led by results:

| Ki [nM] | SMILES |
| --- | --- |
| 6.03 | O=C(NC1CCN(Cc2ccccc2Cl)CC1)[C@@H]1C[C@H]1CN1CCN(c2csc3cc(C(F)(F)F)ccc23)CC1 [compound 832741] |
| 2.36 | COc1ccc2c(c1)c(N1CCN(C[C@@H]3C[C@H]3C(=O)NC3CCN(CC4CCCCC4)CC3)CC1)nn2C [compound 832743] |
| 1.37 | COc1ccc2c(c1)c(N1CCN(C[C@@H]3C[C@H]3C(=O)NC3CCN(CC4CC4)CC3)CC1)nn2C [compound 832744] |
| 1.84 | Cc1cccc(CN2CCC(NC(=O)[C@@H]3C[C@H]3CN3CCC(c4noc5ccsc45)CC3)CC2)c1 [compound 832788] |
| 3.05 | Cc1cccc(CN2CCC(NC(=O)[C@@H]3C[C@H]3CN3CCN(c4csc5cc(C(F)(F)F)ccc45)CC3)CC2)c1 [compound 832789] |
| 2.57 | O=C(N[C@H]1CC[C@H](O)CC1)[C@@H]1C[C@H]1CN1CCN(c2nn(-c3ccccc3)c3ccsc23)CC1 [compound 832816] |
| 1.12 | C[C@H]1CC[C@H](NC(=O)[C@@H]2C[C@H]2CN2CCN(c3nn(-c4ccccc4)c4ccsc34)CC2)CC1 [compound 832849] |
| 0.264 | C[C@H]1CC[C@H](NC(=O)[C@@H]2C[C@H]2CN2CCN(c3nn(-c4ccc(F)cc4)c4ccsc34)CC2)CC1 [compound 832850] |
| 0.9 | O=C([C@@H]1C[C@H]1CN1CCN(c2csc3cc(C(F)(F)F)ccc23)CC1)N1CCC[C@@H](Cn2ccnc2)C1 [compound 833097] |
| 8.84 | O=C([C@@H]1C[C@H]1CN1CCN(c2csc3cc(C(F)(F)F)ccc23)CC1)N1CCC[C@H](Cn2ccnc2)C1 [compound 833098] |
| 8.85 | O=C(NCCc1cccc(C(F)(F)F)c1)[C@@H]1C[C@H]1CN1CCC(c2noc3ccsc23)CC1 [compound 833130] |
| 2.09 | O=C(NC1CCN(Cc2ccc(C(F)(F)F)cc2)CC1)[C@@H]1C[C@H]1CN1CCC(c2noc3ccsc23)CC1 [compound 833160] |
| 1.72 | O=C(NC1CCN(Cc2cc(F)cc(F)c2)CC1)[C@@H]1C[C@H]1CN1CCC(c2noc3ccsc23)CC1 [compound 833166] |
| 1.57 | O=C(NC1CCN(Cc2ccc(F)cc2F)CC1)[C@@H]1C[C@H]1CN1CCC(c2noc3ccsc23)CC1 [compound 833167] |
| 3.11 | O=C(NC1CCN(Cc2cc(F)ccc2F)CC1)[C@@H]1C[C@H]1CN1CCC(c2noc3ccsc23)CC1 [compound 833168] |
| 7.04 | CC(C)(C)OC(=O)NCCN1CCN(C(=O)[C@@H]2C[C@H]2CN2CCN(c3csc4cc(C(F)(F)F)ccc34)CC2)CC1 [compound 833278] |
